Laboratory results: patent US7009045B2 (priority 2000, dated 2006)

Legend:
Format in all cases: cell-based
[1] = system: Candida famata regulatory mutants able to overproduce riboflavin; test: Sensitivity to Co^+2 ions, solid Burkholder medium (Table 16); design: key: +++: strong growth; ++: weak growth; —: absence of growth
Method: (§1) The sensitivity of the regulatory mutants of the yeast C. famata which overproduce riboflavin in iron rich medium probably due to defects in genes regulating repression (repression mutants), to different ions of heavy metals was studied. For this, the analyzed strains were streaked on the YPD plates and then were replica-plated on Burkholder synthetic medium containing leucine (40 μg/ml). The C.famata mutants L20105-40-1-11, L20105-40-1-17, L20105-3-2-1, L20105-3-2-8 and L20105-3-2-12 (all contained leu2 marker) accumulated 80–100 μg riboflavin/ml. The mutants #75, 4-48, 2-5 produced much higher amounts of riboflavin (200–250 μg/ml) but were prototrophs for leucine synthesis. Strain #75 was characterized by retarded growth comparing with other mutants. The strains VKM Y-9 (wild type) and L20105 (leu2) were used as the control strains.

[2] = system: Candida famata regulatory mutants able to overproduce riboflavin; test: Sensitivity to K2Cr2O7, solid Burkholder medium with 0.5% glycerol (Table 14); design: key: +++: strong growth; ++: weak growth; +: very weak growth; —: absence of growth
Method: as §1

[3] = system: Pichia guilliermondii wild type and regulatory mutants (rib81); test: Sensitivity after electroporation to K2Cr2O7, Burkholder medium with 0.3 M sucrose (Table 22); design: key: +++: strong growth; ++: weak growth; +: very weak growth; —: absence of growth; conditions: K2Cr2O7 400 μM
[4] = system: Pichia guilliermondii wild type and regulatory mutants (rib81); test: Sensitivity after electroporation to K2Cr2O7, medium with 0.5% glycerol (Table 21); conditions: Cr^+6 250–350 μM, 0.6 M KCl
Text: The possibility for positive selection of P. guilliermondii rib81 transformants unable to overproduce riboflavin in minimal medium was studied. For this, the toxicity of K2Cr2O7 (Cr^+6) was compared for the P. guilliermondii wild-type strain ATCC 9058 and regulatory mutants P. guilliermondii rib81 9-20 and 20-2. The cells were pregrown in liquid YPD to OD 1.5–2.0 (540 nm) and electroporated according to the protocol described (Example 34). Electroporated cells were washed three times with 10×volume of 0.6 M KCl and then the volume was adjusted to 1 ml. Then the cells were plated at 0.2 ml suspension per plate which contained 0.5% glycerol, 0.6 M KCl and K2Cr2O7 (50–1000 μM).
The visual selection of the non-overproducing riboflavin transformants is rather arbitrary and uncertain. Therefore it was decided to develop the method for positive selection of the transformants using tentative differences in sensitivity to K2Cr2O7 of wild-type P. guilliermondii and the regulatory mutants rib81 9-20 and 20-2. After 6 days of cultivation in the medium with 0.5% glycerol, it was shown that K2Cr2O7 at 150–180 μM inhibited growth of regulatory mutant 9-20 more strongly than that of the wild strain (Table 21).

With [Cl-].[Cl-].[Co+2] [CoCl2] the growth ([1]; #2-5, Co^+2 1.25 μg/ml) was “+++”, the growth ([1]; #2-5, Co^+2 2.5 μg/ml) was “++” and the growth ([1]; #2-5, Co^+2 5.0 μg/ml) was “—”. For the same molecule, the growth ([1]; #2-5, Co^+2 6.25 μg/ml) was “—”, the growth ([1]; #2-5, Co^+2 7.5 μg/ml) was “—” and the growth ([1]; #2-5, Co^+2 8.75 μg/ml) was “—”. For the same molecule, the growth ([1]; #2-5, Co^+2 10 μg/ml) was “—”, the growth ([1]; #2-5, Co^+2 11.25 μg/ml) was “—” and the growth ([1]; #2-5, Co^+2 12.5 μg/ml) was “—”. For the same molecule, the growth ([1]; #4-48, Co^+2 1.25 μg/ml) was “+++”, the growth ([1]; #4-48, Co^+2 2.5 μg/ml) was “++” and the growth ([1]; #4-48, Co^+2 3.75 μg/ml) was “—”. For the same molecule, the growth ([1]; #4-48, Co^+2 5.0 μg/ml) was “—”, the growth ([1]; #4-48, Co^+2 6.25 μg/ml) was “—” and the growth ([1]; #4-48, Co^+2 7.5 μg/ml) was “—”. The growth ([1]; #4-48, Co^+2 8.75 μg/ml) was “—”, the growth ([1]; #4-48, Co^+2 10 μg/ml) was “—” and the growth ([1]; #4-48, Co^+2 11.25 μg/ml) was “—”. For the same molecule, the growth ([1]; #4-48, Co^+2 12.5 μg/ml) was “—”, the growth ([1]; #75, Co^+2 1.25 μg/ml) was “++” and the growth ([1]; #75, Co^+2 3.75 μg/ml) was “—”. For the same molecule, the growth ([1]; #75, Co^+2 5.0 μg/ml) was “—”, the growth ([1]; #75, Co^+2 6.25 μg/ml) was “—” and the growth ([1]; #75, Co^+2 7.5 μg/ml) was “—”. The growth ([1]; #75, Co^+2 8.75 μg/ml) was “—”, the growth ([1]; #75, Co^+2 10 μg/ml) was “—” and the growth ([1]; #75, Co^+2 11.25 μg/ml) was “—”. The growth ([1]; #75, Co^+2 12.5 μg/ml) was “—”, the growth ([1]; L20105 (leu2), Co^+2 1.25 μg/ml) was “+++” and the growth ([1]; L20105 (leu2), Co^+2 2.5 μg/ml) was “+++”. The growth ([1]; L20105 (leu2), Co^+2 3.75 μg/ml) was “+++”, the growth ([1]; L20105 (leu2), Co^+2 5.0 μg/ml) was “+++” and the growth ([1]; L20105 (leu2), Co^+2 6.25 μg/ml) was “+++”. For the same molecule, the growth ([1]; L20105 (leu2), Co^+2 7.5 μg/ml) was “+++”, the growth ([1]; L20105 (leu2), Co^+2 8.75 μg/ml) was “+++” and the growth ([1]; L20105 (leu2), Co^+2 10 μg/ml) was “+++”. For the same molecule, the growth ([1]; L20105 (leu2), Co^+2 11.25 μg/ml) was “++”, the growth ([1]; L20105 (leu2), Co^+2 12.5 μg/ml) was “++” and the growth ([1]; L20105-3-2-1, Co^+2 1.25 μg/ml) was “+++”. For the same molecule, the growth ([1]; L20105-3-2-1, Co^+2 2.5 μg/ml) was “++”, the growth ([1]; L20105-3-2-1, Co^+2 5.0 μg/ml) was “—” and the growth ([1]; L20105-3-2-1, Co^+2 6.25 μg/ml) was “—”. For the same molecule, the growth ([1]; L20105-3-2-1, Co^+2 7.5 μg/ml) was “—”, the growth ([1]; L20105-3-2-1, Co^+2 8.75 μg/ml) was “—” and the growth ([1]; L20105-3-2-1, Co^+2 10 μg/ml) was “—”. The growth ([1]; L20105-3-2-1, Co^+2 11.25 μg/ml) was “—”, the growth ([1]; L20105-3-2-1, Co^+2 12.5 μg/ml) was “—” and the growth ([1]; L20105-3-2-8, Co^+2 1.25 μg/ml) was “+++”. The growth ([1]; L20105-3-2-8, Co^+2 2.5 μg/ml) was “++”, the growth ([1]; L20105-3-2-8, Co^+2 6.25 μg/ml) was “—” and the growth ([1]; L20105-3-2-8, Co^+2 7.5 μg/ml) was “—”. The growth ([1]; L20105-3-2-8, Co^+2 8.75 μg/ml) was “—”, the growth ([1]; L20105-3-2-8, Co^+2 10 μg/ml) was “—” and the growth ([1]; L20105-3-2-8, Co^+2 11.25 μg/ml) was “—”. The growth ([1]; L20105-3-2-8, Co^+2 12.5 μg/ml) was “—”, the growth ([1]; L20105-3-2-9, Co^+2 1.25 μg/ml) was “+++” and the growth ([1]; L20105-3-2-9, Co^+2 2.5 μg/ml) was “++”. The growth ([1]; L20105-3-2-9, Co^+2 5.0 μg/ml) was “—”, the growth ([1]; L20105-3-2-9, Co^+2 6.25 μg/ml) was “—” and the growth ([1]; L20105-3-2-9, Co^+2 7.5 μg/ml) was “—”. The growth ([1]; L20105-3-2-9, Co^+2 8.75 μg/ml) was “—”, the growth ([1]; L20105-3-2-9, Co^+2 10 μg/ml) was “—” and the growth ([1]; L20105-3-2-9, Co^+2 11.25 μg/ml) was “—”. The growth ([1]; L20105-3-2-9, Co^+2 12.5 μg/ml) was “—”, the growth ([1]; L20105-3-2-12, Co^+2 1.25 μg/ml) was “+++” and the growth ([1]; L20105-3-2-12, Co^+2 2.5 μg/ml) was “++”. The growth ([1]; L20105-3-2-12, Co^+2 6.25 μg/ml) was “—”, the growth ([1]; L20105-3-2-12, Co^+2 7.5 μg/ml) was “—” and the growth ([1]; L20105-3-2-12, Co^+2 8.75 μg/ml) was “—”. The growth ([1]; L20105-3-2-12, Co^+2 10 μg/ml) was “—”, the growth ([1]; L20105-3-2-12, Co^+2 11.25 μg/ml) was “—” and the growth ([1]; L20105-3-2-12, Co^+2 12.5 μg/ml) was “—”. The growth ([1]; L20105-40-1-11, Co^+2 1.25 μg/ml) was “+++”, the growth ([1]; L20105-40-1-11, Co^+2 2.5 μg/ml) was “++” and the growth ([1]; L20105-40-1-11, Co^+2 5.0 μg/ml) was “—”. The growth ([1]; L20105-40-1-11, Co^+2 6.25 μg/ml) was “—”, the growth ([1]; L20105-40-1-11, Co^+2 7.5 μg/ml) was “—” and the growth ([1]; L20105-40-1-11, Co^+2 8.75 μg/ml) was “—”. For the same molecule, the growth ([1]; L20105-40-1-11, Co^+2 10 μg/ml) was “—”, the growth ([1]; L20105-40-1-11, Co^+2 11.25 μg/ml) was “—” and the growth ([1]; L20105-40-1-11, Co^+2 12.5 μg/ml) was “—”. The growth ([1]; VKM Y-9, Co^+2 1.25 μg/ml) was “+++”, the growth ([1]; VKM Y-9, Co^+2 2.5 μg/ml) was “+++” and the growth ([1]; VKM Y-9, Co^+2 3.75 μg/ml) was “+++”. The growth ([1]; VKM Y-9, Co^+2 5.0 μg/ml) was “+++”, the growth ([1]; VKM Y-9, Co^+2 6.25 μg/ml) was “+++” and the growth ([1]; VKM Y-9, Co^+2 7.5 μg/ml) was “+++”. For the same molecule, the growth ([1]; VKM Y-9, Co^+2 8.75 μg/ml) was “+++”, the growth ([1]; VKM Y-9, Co^+2 10 μg/ml) was “+++” and the growth ([1]; VKM Y-9, Co^+2 11.25 μg/ml) was “+++”. For the same molecule, the growth ([1]; VKM Y-9, Co^+2 12.5 μg/ml) was “+++”.

For [K+].[K+].[O]=[Cr](=[O])([O-])[O][Cr](=[O])(=[O])[O-] [K2Cr2O7], the growth ([2]; #2-5, K2Cr2O7 65 μM) was “+”, the growth ([2]; #2-5, K2Cr2O7 75 μM) was “+” and the growth ([2]; L20105-3-2-4, K2Cr2O7 30 μM) was “+”. The growth ([2]; L20105-3-2-4, K2Cr2O7 40 μM) was “+”, the growth ([2]; L20105-3-2-8, K2Cr2O7 30 μM) was “+” and the growth ([2]; L20105-3-2-8, K2Cr2O7 40 μM) was “+”. The growth ([2]; L20105-3-2-12, K2Cr2O7 30 μM) was “+”, the growth ([2]; L20105-3-2-12, K2Cr2O7 40 μM) was “+” and the growth ([3]; #9-20 (leu2)) was “+”. For the same molecule, the growth ([3]; ATCC9058) was “+” and the “growth of wild-type strain P. guilliermondii ATCC 9058” value [4] was “only slightly depressed”.
